Measurements reported in patent publication US20100041892A1, “Therapeutic agent for diabetes” (priority 2005, published 2010).
Like-named read-outs stand apart in the source and are kept apart here.

Tests used:
PPARγ-RXRα heterodimer = biological target: T1, PPARγ-RXRα heterodimer (Homo sapiens, UniProt P37231); experiment: PPARγ-RXRα heterodimer ligand activity (luciferase reporter, PPARγ:RXRα:4ERPP/CHO-K1 cells); format: cell-based; details: concentration showing 50% of the maximum luciferase induction rate; CHO-K1 reporter cells, one day incubation
T1 construct: expressed in transfected cells; host or cells: CHO-K1 (PPARγ:RXRα:4ERPP/CHO-K1)
T1 sequence (P37231 1-477 isoform P37231-2): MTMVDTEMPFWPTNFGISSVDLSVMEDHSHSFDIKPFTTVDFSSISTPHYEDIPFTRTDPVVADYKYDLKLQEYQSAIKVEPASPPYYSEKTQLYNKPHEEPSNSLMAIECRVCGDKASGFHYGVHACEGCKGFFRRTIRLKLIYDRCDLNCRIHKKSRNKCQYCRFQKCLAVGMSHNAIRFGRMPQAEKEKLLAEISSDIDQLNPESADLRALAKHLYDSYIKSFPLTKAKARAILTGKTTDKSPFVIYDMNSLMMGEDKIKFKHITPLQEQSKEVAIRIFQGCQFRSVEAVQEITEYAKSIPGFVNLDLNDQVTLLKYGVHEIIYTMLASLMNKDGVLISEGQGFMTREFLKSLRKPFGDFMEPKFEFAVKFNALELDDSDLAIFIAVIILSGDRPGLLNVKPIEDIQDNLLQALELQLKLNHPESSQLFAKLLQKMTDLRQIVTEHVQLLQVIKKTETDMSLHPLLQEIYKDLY
T1 sequence (P19793 1-462 partner): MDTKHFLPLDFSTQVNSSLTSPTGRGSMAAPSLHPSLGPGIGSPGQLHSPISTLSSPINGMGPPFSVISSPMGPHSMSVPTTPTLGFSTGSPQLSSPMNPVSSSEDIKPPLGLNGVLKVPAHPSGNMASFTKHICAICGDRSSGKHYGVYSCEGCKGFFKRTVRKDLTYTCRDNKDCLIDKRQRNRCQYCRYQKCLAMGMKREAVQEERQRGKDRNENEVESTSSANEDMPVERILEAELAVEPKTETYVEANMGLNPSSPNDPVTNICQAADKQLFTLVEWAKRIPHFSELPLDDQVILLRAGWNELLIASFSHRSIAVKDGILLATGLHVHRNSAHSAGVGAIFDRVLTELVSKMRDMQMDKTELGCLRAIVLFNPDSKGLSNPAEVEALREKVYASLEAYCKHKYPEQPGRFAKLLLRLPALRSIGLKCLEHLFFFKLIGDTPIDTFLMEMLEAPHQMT
Experimental: The PPARγ:RXRα:4ERPP/CHO-K1 cells described in WO03/099793 were cultured in a Ham F12 medium [manufactured by Life Technologies, Inc., US] containing 10% calf fetal serum [manufactured by Life Technologies, Inc., US], sown in a 96-well white plate (manufactured by Corning Coster Corporation, US] at 1×10^4 cells/well, and incubated overnight in a carbon dioxide gas incubator at 37° C.
Then, the medium was removed from the 96 well white plate, 45 μl of Ham F12-medium containing 0.1% fatty acid-free bovine serum albumin (BSA) and a test compound (5 μl) were added, and the cells were incubated for one day in a carbon dioxide gas incubator at 37° C. The medium was removed, 20 μl of PicaGene 7.5 (manufactured by Wako Pure Chemical Industries, Ltd.) 2-fold diluted with HBSS (HANKS' BALANCED SALT SOLUTION) [manufactured by BIO WHITTAKER, US] was added. After stirring, the luciferase activity was determined using the 1420 ARVO Multilabel Counter [manufactured by PerkinElmer, US].
The induction rate was calculated from the luciferase activity of each test compound based on the luciferase activity of the test compound non-administration group as 1. The test compound concentration and the induction rate were analyzed by PRISM [manufactured by GraphPad Software, Inc., US] to calculate EC50 value (compound concentration showing 50% of the maximum value of induction rate) of the test compound.

KKAy mice = experiment: Blood glucose and blood lipid (triglyceride) lowering action in mice; format: in vivo; details: Mus musculus, 4TO7, po, 0.03% in powder diet, 4 to 7 days
Excerpt: The test compound was mixed with a powder diet (CE-2, CLEA JAPAN, INC.) at a proportion of 0.01% (0.03% for the compounds of Examples 1, 2, 12, 81, 94, 96, 129 and 143, and 0.005% for the compounds of Examples 28, 30 and 37) and freely given to KKAy mice (9 to 14-week-old, 5 mice per group) which are obesity non-insulin-dependent diabetes (type-2 diabetes) models, for 4 to 7 days. During this period, water was freely given. The blood was drawn from the orbital venous plexus. Glucose and triglyceride in the plasma separated from the blood were quantitated using L Type Wako Glu2 (Wako Pure Chemical Industries, Ltd.) and L Type Wako TG·H (Wako Pure Chemical Industries, Ltd.), respectively, according to an enzyme method.

Structure (SMILES) | melting point [°C] | also measured
CCCCCS(=O)(=O)NC(=O)C(C)Cc1ccc(OCCOC)cc1Oc1ncc(C(F)(F)F)cc1Cl (stereo not drawn) [Example 209, 3-[2-{[3-chloro-5-(trifluoromethyl)pyridin-2-yl]oxy}-4-(2-methoxyethoxy)phenyl]-2-methyl-N-(pentylsulfonyl)propanamide] | – | EC50 (PPARγ-RXRα heterodimer): 2.3 nM
COCCOc1ccc(CCCOC(=O)NS(=O)(=O)N2Cc3ccccc3C2)c(Oc2ncc(C(F)(F)F)cc2Cl)c1 [Example 371, 3-[2-{[3-chloro-5-(trifluoromethyl)pyridin-2-yl]oxy}-4-(2-methoxyethoxy)phenyl]propyl (1,3-dihydro-2H-isoindol-2-ylsulfonyl)carbamate] | – | EC50 (PPARγ-RXRα heterodimer): 4.7 nM
CCCCCS(=O)(=O)NC(=O)CCc1ccc(OCCN2CCCC2=O)cc1Oc1ncc(C(F)(F)F)cc1Cl [Example 47, 3-{2-{[3-chloro-5-(trifluoromethyl)pyridin-2-yl]oxy}-4-[2-(2-oxopyrrolidin-1-yl)ethoxy]phenyl}-N-(pentylsulfonyl)propanamide] | – | EC50 (PPARγ-RXRα heterodimer): 3.4 nM
CC(C)CCS(=O)(=O)NC(=O)/C=C/c1cc(OC2CCOCC2)nn1Cc1ccc(Cl)cc1Cl [Example 117, (2E)-3-[1-(2,4-dichlorobenzyl)-3-(tetrahydro-2H-pyran-4-yloxy)-1H-pyrazol-5-yl]-N-[(3-methylbutyl)sulfonyl]acrylamide] | 143 to 144 | –
COCCOc1ccc(/C=C/C(=O)NS(=O)(=O)CC(F)(F)F)c(Oc2ncc(C(F)(F)F)cc2Cl)c1 [Example 246, (2E)-3-[2-{[3-chloro-5-(trifluoromethyl)pyridin-2-yl]oxy}-4-(2-methoxyethoxy)phenyl]-N-[(2,2,2-trifluoroethyl)sulfonyl]acrylamide] | 146 to 147.5 | –
CCCCCS(=O)(=O)NC(=O)CCc1cc(C(C)(C)C)nn1Cc1ccc(C(F)(F)F)cc1Cl [Example 122, 3-{3-tert-butyl-1-[2-chloro-4-(trifluoromethyl)benzyl]-1H-pyrazol-5-yl}-N-(pentylsulfonyl)propanamide] | 136 to 137 | –
CCCCCS(=O)(=O)NC(=O)/C=C/c1ccc(OCC2CCCO2)cc1Oc1ncc(C(F)(F)F)cc1Cl (stereo not drawn) [Example 195, (2E)-3-[2-{[3-chloro-5-(trifluoromethyl)pyridin-2-yl]oxy}-4-(tetrahydrofuran-2-ylmethoxy)phenyl]-N-(pentylsulfonyl)acrylamide] | 126.5 to 128.5 | –
CCCCCS(=O)(=O)NC(=O)CCc1ccc(OCCOC)cc1Oc1ncc(Cl)cc1Cl [Example 171, 3-[2-[(3,5-dichloropyridin-2-yl)oxy]-4-(2-methoxyethoxy)phenyl]-N-(pentylsulfonyl)propanamide] | 92.2 to 93.6 | –
COCCOc1ccc(/C=C/C(=O)NS(=O)(=O)c2ccc(C(F)(F)F)cc2)c(Oc2ncc(C(F)(F)F)cc2Cl)c1 [Example 234, (2E)-3-[2-{[3-chloro-5-(trifluoromethyl)pyridin-2-yl]oxy}-4-(2-methoxyethoxy)phenyl]-N-{[4-(trifluoromethyl)phenyl]sulfonyl}acrylamide] | 186.3 to 186.5 | –
C=CCCOc1ccc(CCCOC(=O)NS(=O)(=O)NCCOC(C)C)c(Oc2ncc(C(F)(F)F)cc2Cl)c1 [Example 475, 3-(4-(but-3-en-1-yloxy)-2-{[3-chloro-5-(trifluoromethyl)pyridin-2-yl]oxy}phenyl)propyl {[(2-isopropoxyethyl)amino]sulfonyl}carbamate] | 111.1 to 113 | –
COCCOc1ccc(CCCOC(=O)NS(=O)(=O)c2ccc(C)cc2)c(Oc2ncc(C(F)(F)F)cc2Cl)c1.O (hydrate or solvate) [Example 30, 3-[2-{[3-chloro-5-(trifluoromethyl)pyridin-2-yl]oxy}-4-(2-methoxyethoxy)phenyl]propyl [(4-methylphenyl)sulfonyl]carbamate monohydrate] | 118 to 120 | –
COCCOc1ccc(COC(=O)NS(=O)(=O)NCC2CC2)c(Oc2ncc(C(F)(F)F)cc2Cl)c1 [Example 67, 2-{[3-chloro-5-(trifluoromethyl)pyridin-2-yl]oxy}-4-(2-methoxyethoxy)benzyl {[(cyclopropylmethyl)amino]sulfonyl}carbamate] | 150 to 150.5 | –
CCCCCS(=O)(=O)NC(=O)CCc1cc(OC(C)C)nn1Cc1ccc(C(F)(F)F)cc1Cl [Example 143, 3-{1-[2-chloro-4-(trifluoromethyl)benzyl]-3-isopropoxy-1H-pyrazol-5-yl}-N-(pentylsulfonyl)propanamide] | – | response vs control in vivo at 0.03 % (KKAy mice; plasma glucose relative to non-administration group = 100%, read-out: hypoglycemic action (%)): 47%; response vs control in vivo at 0.03 % (KKAy mice; plasma triglyceride relative to non-administration group = 100%, read-out: hypolipidemic action (%)): 76%
CCCCCS(=O)(=O)NC(=O)/C=C/c1c(C)cc(C)n1Cc1ccc(Cl)cc1Cl [Example 458, (2E)-3-[1-{2,4-dichlorobenzyl)-3,5-dimethyl-1H-pyrrol-2-yl]-N-(pentylsulfonyl)acrylamide] | 170 to 171 | –
CCCCCS(=O)(=O)NC(=O)/C=C/c1ccc(OCCOC)cc1Nc1ccc(C(F)(F)F)cc1 [Example 176, (2E)-3-(4-(2-methoxyethoxy)-2-{[4-(trifluoromethyl)phenyl]amino}phenyl)-N-(pentylsulfonyl)acrylamide] | 142.3 to 142.6 | –
COCCOc1ccc(/C=C/C(=O)NS(=O)(=O)NCCc2ccccc2)c(Oc2ncc(C(F)(F)F)cc2Cl)c1 [Example 228, (2E)-3-[2-{[3-chloro-5-(trifluoromethyl)pyridin-2-yl]oxy}-4-(2-methoxyethoxy)phenyl]-N-{[(2-phenylethyl)amino]sulfonyl}acrylamide] | 85 to 85.5 | –
CCCCCS(=O)(=O)NC(=O)CCc1ccc(OC(C)C)cc1OCc1ccc(Cl)cc1Cl [Example 42, 3-{2-[(2,4-dichlorobenzyl)oxy]-4-isopropoxyphenyl}-N-(pentylsulfonyl)propanamide] | 120 to 120.5 | –
CCCCOc1cc(CCS(=O)(=O)NC(=O)OCC(C)C)n(Cc2ccc(Cl)cc2Cl)n1 [Example 133, isobutyl ({2-[3-butoxy-1-(2,4-dichlorobenzyl)-1H-pyrazol-5-yl]ethyl}sulfonyl)carbamate] | 114 to 116 | –
C/C(=C\c1ccc(OC(C)C)cc1Oc1ncc(C(F)(F)F)cc1Cl)C(=O)NS(=O)(=O)NCCc1ccccc1 [Example 220, (2E)-3-(2-{[3-chloro-5-(trifluoromethyl)pyridin-2-yl]oxy}-4-isopropoxyphenyl)-2-methyl-N-{[(2-phenylethyl)amino]sulfonyl}acrylamide] | 147 to 147.5 | –
COCCOc1ccc(COC(=O)NS(=O)(=O)CCC(C)C)c(Oc2ncc(C(F)(F)F)cc2Cl)c1 [Example 59, 2-{[3-chloro-5-(trifluoromethyl)pyridin-2-yl]oxy}-4-(2-methoxyethoxy)benzyl [(3-methylbutyl)sulfonyl]carbamate] | 122 to 124 | –
